Results published in the supplement of paper PMC10883282.
± gives the standard deviation of the averaged measurements.

Experiments:
Assay in all cases: relative viability vs DMSO control (72 h) (fraction); higher = more viable cells
A204 = system: A204
How it was run: (§1)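 Sarcoma cell lines in 384-well plates, seeded to reach 80–90% confluence, were given compound after 24 h and kept 72 h at 37 °C, 5% CO2, with 0.1% DMSO vehicle and a 5 µM positive control. Relative viability came from ATPLite as percent growth, averaged over up to triplicate wells. On the rescaled values, 1 equals full and 0 equals none.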

G401 = system: G401
How it was run: as §1

HS729 = system: HS729
How it was run: as §1

KHOS-NP = system: KHOS-NP
How it was run: as §1

MES-SA = system: MES-SA
How it was run: as §1

RD = system: RD
How it was run: as §1

SK-ES-1 = system: SK-ES-1
How it was run: as §1

SK-LMS-1 = system: SK-LMS-1
How it was run: as §1

SW684 = system: SW684
How it was run: as §1

SW872 = system: SW872
How it was run: as §1

SYO-1 = system: SYO-1
How it was run: as §1

VA-ES-BJ = system: VA-ES-BJ
How it was run: as §1

`C[C@H]1Oc2cc(cnc2N)-c2c(nn(C)c2C#N)CN(C)C(=O)c2ccc(F)cc21` [Lorlatinib] was tested, and the relative viability (A204; 0.00017 µM) was 1.08 ± 0.016, the relative viability (A204; 0.00051 µM) was 1.11 ± 0.024 and the relative viability (A204; 0.00152 µM) was 1.1 ± 0.054. It also gave a relative viability (A204; 0.00457 µM) of 1.13 ± 0.024, a relative viability (A204; 0.01372 µM) of 1.1 ± 0.027 and a relative viability (A204; 0.04115 µM) of 1.07 ± 0.083. It also gave a relative viability (A204; 0.1235 µM) of 1.05 ± 0.039, a relative viability (A204; 0.3704 µM) of 1.05 ± 0.034 and a relative viability (A204; 1.111 µM) of 1.01 ± 0.046. It also gave a relative viability (A204; 3.333 µM) of 0.981 ± 0.044, a relative viability (A204; 10 µM) of 0.988 ± 0.049 and a relative viability (G401; 0.00017 µM) of 1.05 ± 0.047. The relative viability (G401; 0.00051 µM) was 1.05 ± 0.037, the relative viability (G401; 0.00152 µM) was 1.04 ± 0.011 and the relative viability (G401; 0.00457 µM) was 1.03 ± 0.016. For the same compound, the relative viability (G401; 0.01372 µM) was 1.06 ± 0.013, the relative viability (G401; 0.04115 µM) was 1.02 ± 0.063 and the relative viability (G401; 0.1235 µM) was 0.968 ± 0.0083. For the same compound, the relative viability (G401; 0.3704 µM) was 0.984 ± 0.025, the relative viability (G401; 1.111 µM) was 1 ± 0.052 and the relative viability (G401; 3.333 µM) was 1.01 ± 0.047. For the same compound, the relative viability (G401; 10 µM) was 0.916 ± 0.063, the relative viability (HS729; 0.00017 µM) was 1.06 ± 0.025 and the relative viability (HS729; 0.00051 µM) was 0.956 ± 0.017. The relative viability (HS729; 0.00152 µM) was 0.897 ± 0.039, the relative viability (HS729; 0.00457 µM) was 0.958 ± 0.077 and the relative viability (HS729; 0.01372 µM) was 0.878 ± 0.019. The relative viability (HS729; 0.04115 µM) was 0.886 ± 0.024, the relative viability (HS729; 0.1235 µM) was 0.829 ± 0.027 and the relative viability (HS729; 0.3704 µM) was 0.899 ± 0.068. The relative viability (HS729; 1.111 µM) was 0.803 ± 0.089, the relative viability (HS729; 3.333 µM) was 0.781 ± 0.037 and the relative viability (HS729; 10 µM) was 0.662 ± 0.039. It also gave a relative viability (KHOS-NP; 0.00017 µM) of 1.09 ± 0.014, a relative viability (KHOS-NP; 0.00051 µM) of 1.091 ± 0.0096 and a relative viability (KHOS-NP; 0.00152 µM) of 1.09 ± 0.016. For the same compound, the relative viability (KHOS-NP; 0.00457 µM) was 1.07 ± 0.031, the relative viability (KHOS-NP; 0.01372 µM) was 1.07 ± 0.03 and the relative viability (KHOS-NP; 0.04115 µM) was 1.06 ± 0.013. For the same compound, the relative viability (KHOS-NP; 0.1235 µM) was 1.02 ± 0.039, the relative viability (KHOS-NP; 0.3704 µM) was 1.07 ± 0.025 and the relative viability (KHOS-NP; 1.111 µM) was 0.999 ± 0.016. It also gave a relative viability (KHOS-NP; 3.333 µM) of 1.02 ± 0.011, a relative viability (KHOS-NP; 10 µM) of 0.954 ± 0.05 and a relative viability (MES-SA; 0.00017 µM) of 0.955 ± 0.024. It also gave a relative viability (MES-SA; 0.00051 µM) of 0.987 ± 0.037, a relative viability (MES-SA; 0.00152 µM) of 0.943 ± 0.04 and a relative viability (MES-SA; 0.00457 µM) of 0.929 ± 0.013. For the same compound, the relative viability (MES-SA; 0.01372 µM) was 0.922 ± 0.026, the relative viability (MES-SA; 0.04115 µM) was 0.923 ± 0.033 and the relative viability (MES-SA; 0.1235 µM) was 0.911 ± 0.027. For the same compound, the relative viability (MES-SA; 0.3704 µM) was 0.919 ± 0.023, the relative viability (MES-SA; 1.111 µM) was 0.897 ± 0.026 and the relative viability (MES-SA; 3.333 µM) was 0.892 ± 0.058. For the same compound, the relative viability (MES-SA; 10 µM) was 0.879 ± 0.052, the relative viability (RD; 0.00017 µM) was 1.09 ± 0.057 and the relative viability (RD; 0.00051 µM) was 1.11 ± 0.035. The relative viability (RD; 0.00152 µM) was 1.11 ± 0.064, the relative viability (RD; 0.00457 µM) was 1.09 ± 0.044 and the relative viability (RD; 0.01372 µM) was 1.12 ± 0.075. It also gave a relative viability (RD; 0.04115 µM) of 1.07 ± 0.069, a relative viability (RD; 0.1235 µM) of 1.02 ± 0.054 and a relative viability (RD; 0.3704 µM) of 1 ± 0.032. For the same compound, the relative viability (RD; 1.111 µM) was 0.948 ± 0.045, the relative viability (RD; 3.333 µM) was 0.838 ± 0.016 and the relative viability (RD; 10 µM) was 0.668 ± 0.035. It also gave a relative viability (SK-ES-1; 0.00017 µM) of 1.02 ± 0.04, a relative viability (SK-ES-1; 0.00051 µM) of 1.03 ± 0.081 and a relative viability (SK-ES-1; 0.00152 µM) of 1.06 ± 0.021. The relative viability (SK-ES-1; 0.00457 µM) was 1.05 ± 0.044, the relative viability (SK-ES-1; 0.01372 µM) was 1.01 ± 0.045 and the relative viability (SK-ES-1; 0.04115 µM) was 1.01 ± 0.02. It also gave a relative viability (SK-ES-1; 0.1235 µM) of 1.023 ± 0.0029, a relative viability (SK-ES-1; 0.3704 µM) of 1.03 ± 0.021 and a relative viability (SK-ES-1; 1.111 µM) of 1 ± 0.047. The relative viability (SK-ES-1; 3.333 µM) was 0.89 ± 0.016, the relative viability (SK-ES-1; 10 µM) was 0.571 ± 0.058 and the relative viability (SK-LMS-1; 0.00017 µM) was 1.12 ± 0.06. For the same compound, the relative viability (SK-LMS-1; 0.00051 µM) was 1.095 ± 0.0097, the relative viability (SK-LMS-1; 0.00152 µM) was 1.081 ± 0.0044 and the relative viability (SK-LMS-1; 0.00457 µM) was 1.09 ± 0.057. For the same compound, the relative viability (SK-LMS-1; 0.01372 µM) was 1.1 ± 0.049, the relative viability (SK-LMS-1; 0.04115 µM) was 1.09 ± 0.082 and the relative viability (SK-LMS-1; 0.1235 µM) was 1.07 ± 0.071. It also gave a relative viability (SK-LMS-1; 0.3704 µM) of 1.02 ± 0.038, a relative viability (SK-LMS-1; 1.111 µM) of 1.02 ± 0.041 and a relative viability (SK-LMS-1; 3.333 µM) of 1 ± 0.052. It also gave a relative viability (SK-LMS-1; 10 µM) of 0.933 ± 0.015, a relative viability (SW684; 0.00017 µM) of 1.13 ± 0.053 and a relative viability (SW684; 0.00051 µM) of 1.2 ± 0.059. It also gave a relative viability (SW684; 0.00152 µM) of 1.17 ± 0.031, a relative viability (SW684; 0.00457 µM) of 1.17 ± 0.081 and a relative viability (SW684; 0.01372 µM) of 1.17 ± 0.039. The relative viability (SW684; 0.04115 µM) was 1.185 ± 0.0046, the relative viability (SW684; 0.1235 µM) was 1.15 ± 0.059 and the relative viability (SW684; 0.3704 µM) was 1.09 ± 0.084. The relative viability (SW684; 1.111 µM) was 1.14 ± 0.051, the relative viability (SW684; 3.333 µM) was 1.12 ± 0.09 and the relative viability (SW684; 10 µM) was 1.12 ± 0.02. For the same compound, the relative viability (SW872; 0.00017 µM) was 1.08 ± 0.012, the relative viability (SW872; 0.00051 µM) was 1.05 ± 0.034 and the relative viability (SW872; 0.00152 µM) was 1.04 ± 0.044. It also gave a relative viability (SW872; 0.00457 µM) of 1.04 ± 0.07, a relative viability (SW872; 0.01372 µM) of 1 ± 0.081 and a relative viability (SW872; 0.04115 µM) of 0.956 ± 0.04. The relative viability (SW872; 0.1235 µM) was 0.921 ± 0.079, the relative viability (SW872; 0.3704 µM) was 0.838 ± 0.083 and the relative viability (SW872; 1.111 µM) was 0.798 ± 0.045. It also gave a relative viability (SW872; 3.333 µM) of 0.718 ± 0.05, a relative viability (SW872; 10 µM) of 0.658 ± 0.034 and a relative viability (SYO-1; 0.00017 µM) of 0.99 ± 0.018. It also gave a relative viability (SYO-1; 0.00051 µM) of 0.982 ± 0.04, a relative viability (SYO-1; 0.00152 µM) of 0.985 ± 0.038 and a relative viability (SYO-1; 0.00457 µM) of 0.966 ± 0.039. The relative viability (SYO-1; 0.01372 µM) was 0.966 ± 0.024, the relative viability (SYO-1; 0.04115 µM) was 0.921 ± 0.017 and the relative viability (SYO-1; 0.1235 µM) was 0.873 ± 0.037. For the same compound, the relative viability (SYO-1; 0.3704 µM) was 0.844 ± 0.06, the relative viability (SYO-1; 1.111 µM) was 0.768 ± 0.069 and the relative viability (SYO-1; 3.333 µM) was 0.737 ± 0.087. The relative viability (SYO-1; 10 µM) was 0.66 ± 0.077, the relative viability (VA-ES-BJ; 0.00017 µM) was 1.056 ± 0.0097 and the relative viability (VA-ES-BJ; 0.00051 µM) was 1.08 ± 0.013. For the same compound, the relative viability (VA-ES-BJ; 0.00152 µM) was 1.05 ± 0.032, the relative viability (VA-ES-BJ; 0.00457 µM) was 1.03 ± 0.042 and the relative viability (VA-ES-BJ; 0.01372 µM) was 1.02 ± 0.033. It also gave a relative viability (VA-ES-BJ; 0.04115 µM) of 0.989 ± 0.041, a relative viability (VA-ES-BJ; 0.1235 µM) of 0.989 ± 0.034 and a relative viability (VA-ES-BJ; 0.3704 µM) of 0.956 ± 0.048. The relative viability (VA-ES-BJ; 1.111 µM) was 0.966 ± 0.048, the relative viability (VA-ES-BJ; 3.333 µM) was 0.955 ± 0.044 and the relative viability (VA-ES-BJ; 10 µM) was 0.87 ± 0.039.
